# Assay results as given in patent US20250066359A1, “SOMATOSTATIN RECEPTOR SUBTYPE 5 ANTAGONISTS, AND PHARMACEUTICAL COMPOSITION AND USE THEREOF” (SHANGHAI INSTITUTE OF MATERIA MEDICA, CHINESE ACADEMY OF …, priority 2021, published 2025).
# Legend:
# [1] = molecular target: T1, mSSTR5 (Mus musculus, UniProt O08858); test: SSTR5 antagonistic activity in vitro by calcium flow detection (mSSTR5-CHO-Gα16 cells); assay type: cell-based; settings: 100 nM Somatostatin-14 agonist, Fluo-4 fluorescence 525 nm
# T1 construct: expressed in transfected cells; host or cells: CHO cells co-expressing Gα16 (mSSTR5-CHO-Gα16)
# T1 sequence (O08858 1-362): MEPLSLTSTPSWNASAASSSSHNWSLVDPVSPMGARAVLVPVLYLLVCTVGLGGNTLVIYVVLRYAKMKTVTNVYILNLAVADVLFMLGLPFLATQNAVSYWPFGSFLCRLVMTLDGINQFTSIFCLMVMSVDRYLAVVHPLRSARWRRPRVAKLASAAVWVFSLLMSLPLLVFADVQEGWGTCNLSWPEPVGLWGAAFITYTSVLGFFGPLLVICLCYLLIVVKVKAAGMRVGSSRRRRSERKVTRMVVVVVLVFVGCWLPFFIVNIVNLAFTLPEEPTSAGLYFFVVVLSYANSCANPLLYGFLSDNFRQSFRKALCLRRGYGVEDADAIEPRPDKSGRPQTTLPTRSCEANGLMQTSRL
# Excerpt: (§1) Testing SSTR5 antagonistic activity in vitro by Calcium flow detection method Experimental principle: After the receptor binds to the ligand and is activated, it can cause the activation of Gα16 protein, which further activates phospholipase C(PLC) to produce IP3 and DAG. IP3 can bind to the IP3 receptors on the endoplasmic reticulum and mitochondria in the cell, thereby causing the release of intracellular calcium. Therefore, measuring the changes in intracellular calcium can be used in the method to detect the activation state of hSSTR5. Fluo-4/AM is a calcium fluorescent probe indicator used to measure calcium ions. As a non-polar lipid-soluble compound, after it enters the cell, the AM group therein dissociates, and Fluo-4 is released under the action of cellular lipase; because Fluo-4 is a polar molecule and is not easy to pass through the lipid bilayer membrane, it can keep Fluo-4 in the cell fora longtime. Finally, the level of Ga protein activation can be reflected by measuring the intensity of the excited fluorescence. Somatostatin, an agonist of SSTR5, can activate SSTR5 receptors and greatly increase the calcium flow response. The SSTR5 antagonist to be tested can inhibit the agonist activity of the SSTR5 receptor and reduce the calcium increased flow response of the receptor stimulated by the agonist.
# (§2) • (1) The hSSTR5-CHO-Gα16 and mSSTR5-CHO-Gα16 cell lines stably expressing hSSTR5 or mSSTR5 receptors were seeded at a density of 30,000/well in a 96-well plate and cultured in a 37° C. incubator overnight. • (2) The cells was aspirated off the culture medium, added with freshly prepared dye at 40 μL/well, and incubated in a 37° C. incubator for 45 minutes. • (3) After the dye was aspirated and discarded, the cells were washed with freshly prepared calcium buffer and the culture medium was replaced with 50 μL of calcium buffer. • (4) The SSTR5 agonist Somatostatin-14 was diluted and mixed evenly with calcium buffer. • (5) Detection was performed using a Flextation instrument. Starting from the 15th second, 25 μL of the pre-prepared agonist was automatically added by the instrument, and the fluorescence value at 525 nm was read.
# [2] = molecular target: T2, hSSTR5 (Homo sapiens, UniProt P35346); test: SSTR5 antagonistic activity in vitro by calcium flow detection (hSSTR5-CHO-Gα16 cells); assay type: cell-based; settings: for IC50: hSSTR5-CHO-Gα16 cells, 100 nM Somatostatin-14 agonist, Fluo-4 fluorescence 525 nm; for SSTR5 antagonistic activity (in words): summary of Table 1
# T2 construct: expressed in transfected cells; host or cells: CHO cells co-expressing Gα16 (hSSTR5-CHO-Gα16)
# T2 sequence (P35346 whole entry): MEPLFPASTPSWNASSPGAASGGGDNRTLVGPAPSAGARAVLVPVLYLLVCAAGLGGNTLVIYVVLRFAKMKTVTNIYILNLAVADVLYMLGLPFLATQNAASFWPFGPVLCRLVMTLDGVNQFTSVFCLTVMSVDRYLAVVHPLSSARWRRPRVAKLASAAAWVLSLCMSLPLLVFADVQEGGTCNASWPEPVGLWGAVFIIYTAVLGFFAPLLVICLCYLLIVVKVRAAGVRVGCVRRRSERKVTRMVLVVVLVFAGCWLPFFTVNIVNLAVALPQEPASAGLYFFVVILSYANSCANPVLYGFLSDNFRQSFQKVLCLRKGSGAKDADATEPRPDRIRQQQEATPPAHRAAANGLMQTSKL
# Excerpt: as §1, §2
# [3] = tested on: SSTR5; test: Calcium flow response to the SSTR5 agonist (choice of agonist concentration); assay type: cell-based; settings: CHO-Gα16 cells expressing SSTR5, cell line (h or m) not stated
# Excerpt: as §1, with “agonist. […]” for “agonist.”
# [4] = tested on: C57BL/6J mice; test: Gallbladder emptying promotion experiment; assay type: in vivo, mouse; settings: 30 mg/kg by gavage, egg yolk 1 h later, gallbladder removed after 15 min, versus control group, FIG. 2
# Procedure: Experimental method: Before the experiment, 8-10 weeks old C57BL/6J mice were fasted for 17-18 hours and allowed to drink water freely. The mice were then divided into groups according to weight (n=4), and were gavaged with an aqueous solution of the compound prepared in Example 34 (30 mg/kg) or an equal volume of distilled water (control group), with a dosing volume of 10 mL/kg. At one hour after administration, 200 microliters of egg yolk were orally administered to the mice. After 15 minutes, the mice were killed by dislocation and dissected, and the gallbladder was removed and the bile was squeezed out and weighed with an analytical balance.
IC50 [1],IC50 [2],SSTR5 antagonistic activity (in words) [2],Molecule,EC50 [3],emptying of the mouse gallbladder (bile weight) [4]
0.1 to 50 nM,0.1 to 50 nM,–,CCOc1cc(CN2CCC(C3CN(S(=O)(=O)c4ccc(OC(F)(F)F)cc4)C3)CC2)cc(OCC)c1-c1ccc(F)cc1 [Example 14],–,–
0.1 to 50 nM,0.1 to 50 nM,potent SSTR5 antagonistic activity,"CCOc1cc(CN2CCC3(CC2)CN(c2ccc(C(=O)O)cc2F)C3)cc(OCC)c1-c1ccc(F)cc1 [Example 27, 4-(7-((2,6-diethoxy-4′-fluoro-[1,1′-biphenyl]-4-yl)methyl)-2,7-diazaspiro[3.5]nonan-2-yl)-3-fluorobenzoic acid]",–,–
0.1 to 50 nM,0.1 to 50 nM,potent SSTR5 antagonistic activity,"CCOc1cc(CN2CCC3(CC2)CN(c2ccc(C(=O)O)c(OC)c2)C3)cc(OCC)c1-c1ccc(F)cc1 [Example 28, 4-(7-((2,6-diethoxy-4′-fluoro-[1,1′-biphenyl]-4-yl)methyl)-2,7-diazaspiro[3.5]nonan-2-yl)-2-methoxybenzoic acid]",–,–
–,> 200 nM,–,"CCOc1cc(CN2CCN(S(=O)(=O)c3ccc(OC(F)(F)F)cc3)CC2)cc(OCC)c1-c1ccc(F)cc1 [Example 16, 1-((2,6-diethoxy-4′-fluoro-[1,1′-biphenyl]-4-yl)methyl)-4-((4-(trifluoromethoxy)phenyl)sulfonyl)piperazine]",–,–
–,> 200 nM,–,CCOc1cc(CN2CCC(N3CCN(S(=O)(=O)c4ccc(OC(F)(F)F)cc4)CC3)CC2)cc(OCC)c1-c1ccc(F)cc1 [Example 13],–,–
0.1 to 50 nM,50 to 200 nM,–,"CCOc1cc(CN2CCC3(CC2)CC(NS(=O)(=O)c2ccc(OC(F)(F)F)cc2)C3)cc(OCC)c1-c1ccc(F)cc1 [Example 11, N-(7-((2,6-diethoxy-4′-fluoro-[1,1′-biphenyl]-4-yl)methyl)-7-azaspiro[3.5]nonan-2-yl)-4-(trifluoromethoxy)benzenesulfonamide]",–,–

# More lines, now with the values behind:
Molecule,IC50 [1],IC50 [2],SSTR5 antagonistic activity (in words) [2],EC50 [3],emptying of the mouse gallbladder (bile weight) [4]
"CCOc1cc(CN2CCC3C(CCN3c3ccc(C(=O)O)cc3)C2)cc(OCC)c1-c1ccc(F)cc1 (stereo not drawn) [Example 2, 4-(5-((2,6-diethoxy-4′-fluoro-[1,1′-biphenyl]-4-yl)methyl)octahydro-1H-pyrrolo[3,2-c]pyridin-1-yl)benzoic acid]",50 to 200 nM,0.1 to 50 nM,potent SSTR5 antagonistic activity,–,–
Somatostatin-14,–,–,–,9.7 nM,–
"CCOc1cc(CN2CCC3(CC2)CN(c2ccc(C(=O)O)c(F)c2)C3)c(C2CC2)cc1C [Example 34, 4-(7-(2-cyclopropyl-5-ethoxy-4-methylbenzyl)-2,7-diazaspiro[3.5]nonan-2-yl)-2-fluorobenzoic acid]",–,–,–,–,significantly promote the emptying of the mouse gallbladder
"CCOc1cc(CN2CCC3(CC2)CN(c2ccc(C(=O)O)cc2)C3)cc(OCC)c1-c1ccc(F)cc1 [Example 10, 4-(7-((2,6-diethoxy-4′-fluoro-[1,1′-biphenyl]-4-yl)methyl)-2,7-diazaspiro[3.5]nonan-2-yl)benzoic acid]",0.1 to 50 nM,0.1 to 50 nM,potent SSTR5 antagonistic activity,–,–
"CCOc1cc(CN2CC3(CC(=O)N(c4ccc(C(=O)O)cc4)C3)C2)ccc1O [Example 26, 4-(2-(3-ethoxy-4-hydroxybenzyl)-7-oxo-2,6-diazaspiro[3.4]octyl-6-yl)benzoic acid]",–,> 200 nM,–,–,–
"CCOc1cc(CN2CC3(CC(=O)N(c4ccc(C(=O)O)cc4)C3)C2)cc(OCC)c1-c1ccc(F)cc1 [Example 7, 4-(2-((2,6-diethoxy-4′-fluoro-[1,1′-biphenyl]-4-yl)methyl)-7-oxo-2,6-diazaspiro[3.4]octane-6-yl)benzoic acid]",0.1 to 50 nM,0.1 to 50 nM,potent SSTR5 antagonistic activity,–,–
"CCOc1cc(CN2CCN(C3CCN(S(=O)(=O)c4ccc(OC(F)(F)F)cc4)CC3)CC2)cc(OCC)c1-c1ccc(F)cc1 [Example 12, 1-((2,6-diethoxy-4′-fluoro-[1,1′-biphenyl]-4-yl)methyl)-4-(1-((4-(trifluoromethoxy)phenyl)sulfonyl)piperidin-4-yl)piperazine]",0.1 to 50 nM,0.1 to 50 nM,potent SSTR5 antagonistic activity,–,–
CCOc1cc(CN2CCC3(CC2)CN(c2ccc(C(=O)O)cc2)CCO3)cc(OCC)c1-c1ccc(F)cc1 [Example 5],–,50 to 200 nM,–,–,–
"CCOc1cc(CN2CCC3(CCC(=O)N(c4ccc(C(=O)O)cc4)C3)CC2)cc(OCC)c1-c1ccc(F)cc1 [Example 1, 4-(9-((2,6-diethoxy-4′-fluoro-[1,1′-biphenyl]-4-yl)methyl)-3-oxo-2,9-diazaspiro[5.5]undec-2-yl)benzoic acid]",–,50 to 200 nM,–,–,–
"CCOc1ccc(C2CC2)c(CN2CC3(CC(=O)N(c4ccc(C(=O)O)cc4)C3)C2)c1 [Example 9, 4-(2-(2-cyclopropyl-5-ethoxybenzyl)-7-oxo-2,6-diazaspiro[3.4]octyl-6-yl)benzoic acid]",–,50 to 200 nM,–,–,–
